Structures can show the parent of a compound that is named as a salt.
Columns and labels:
white outbred male rats [1] = test: Porsolt method of behavioral despair (helplessness); assay type: in vivo
Excerpt: The Porsolt method of behavioral despair (helplessness) (Porsolt R. D., Anton G., Blavet N. et al. Behavioral despair in rats: a new model sensitive to antidepressant treatment//Europ. J. Pharmacol. 1978—v. 47.—p. 379-391) is the basic model for assessing antidepressants (Andreeva N. I., ? H. ? . the Methodical Guidelines for Studying Antidepressant Activity of Pharmaceuticals,//Guidebook for Experimental (Preclinical) Studies of New Pharmaceuticals of the RF Ministry of Public Health.—ZAO IIA “Remedium”.—2000.—p. 121-125). The studies have been conducted on white outbred male rats having the weight of 230-250 grams. The animals have been put into a water reservoir having 40 cm in diameter and the depth of 60 cm, for the rats cannot either run out of the reservoir or find a support in it. The water temperature has been maintained at the level of 25° C., the experiments have been conducted within the period from 12 A.M. to 4 P.M. After coming into water the animals begin displaying energetic motion activity aimed at finding a way out of the aversive (troublesome) situation, but then they stop their attempts and take a typical position in the water, while being fully immovable or making insignificant motions necessary for keeping their heads over the water surface. The depressive condition intensity rate in this test is the duration of immobility. The immobility condition has been assessed visually, determining its duration within 10 minutes of the observations. Substances having antidepressant activity alleviate this condition by reducing the immobility time.
The studies have been conducted using animals divided into groups. The animals from the experimental groups have received single doses of phenotropyl in the amounts of 25, 50 and 100 mg/kg or the standard amitriptyline medication in the amount of 10 mg/kg (ampoule solution made by Spofa, the Czech Republic) in the volume corresponding to the dose. The animals from the control group have received distilled water in the same dosage. All the substances have been given intragastrically 40 minutes before the an experiment.

white outbred male rats [2] = test: involuntary swimming in a reservoir with freely moving wheels according to Nomura; assay type: in vivo
Experimental: The method of involuntary swimming in a reservoir with freely moving wheels (Nomura S., Shimizu J., Kinjo M. et al. A new behavioral test for antidepressant drugs//Eur. J. Pharmacol.—1982.—v. 83.—N 34.—p. 171-175) is widely used for assessing the action of antidepressant agents. The installation is a reservoir having dimensions of 64×30×42 cm and divided into four equal sections where wheels are located. The reservoir is filled with water at the temperature of 25° C., coming to the medium line of the wheels. The studies have been conducted with white outbred male rats having the weight from 230 to 250 grams. The rats have been put into each section in the position where their heads are opposite to the wheels, and then the wheel speed has been recorded for 10 minutes with the use of electromechanical counters. The number of wheel revolutions made by the rat for 10 minutes is recorded.
This study has been conducted with animals from different groups. The rats from the experimental groups have received single doses of phenotropyl in the amounts of 25, 50 and 100 mg/kg or the standard amitriptyline medication in the amount of 10 mg/kg (ampoule solution made by Spofa, the Czech Republic) in the volume corresponding to the dosage. The animals from the control group have received distilled water in the same dosage. All the substances have been given intragastrically 40 minutes before the an experiment.

[3] = system: patients having depressive illnesses; test: clinical study, Hamilton rating scale for depressive illness; assay type: in vivo, human; conditions: 75 mg daily
Experimental: The Hamilton rating scale for primary depressive illness (Hamilton M. Development of a rating scale for primary depressive illness//Br J Soc Clin Psychol. 1967 December;6(4):278-96) is one of the most widely used scales for assessing depression in the clinical practice.
The material for clinical studies has comprised two homogenous groups of patients having depressive illnesses (40 persons) aged 20-42, out of which 20 patients have taken amitriptyline in the daily dose of 75 mg (25 mg three times a day), and 20 patients have taken phenotropyl in the daily dose of 100 mg as a single dose in the morning time. For a comparative study of the medications antidepressant activity the patients have been enlisted for the study according to the following criteria: the informed consent is available, a light or moderate depressive episode (F32.0 ? F32.1 according to MCB-10) is present, the total score under the Hamilton rating scale is not lower than 18, no contraindications to taking amitriptyline and phenotropyl. The patients have been relatively uniformly assigned to the said groups according to meaningful factors, such as sex and age, time for which the condition exists and syndrome characteristics. The condition existence time varied from 1 to 2 years. The therapy efficiency has been assessed on the basis of a degree of reduction of the total score under the Hamilton scale, namely: full effect—reduction by more than 50%; partial reduction—from 25 to 50%; no effect—reduction by less than 25%. The condition of the patients has been assessed during the background studies and at each 7th day of the therapy for the whole 6 weeks of the therapy. In total, seven examinations have been carried out. The comparative data on the general efficiency pf the medications, as given in Table 5, evidence a rather quick reduction of the depressive illness psychopathological symptoms in the process of administering phenotropyl and amitriptyline. However, the antidepressant effect of phenotropyl has been more pronounced on the 7th and 14th days of the therapy. The full reduction has been attained in 25% and 40% of the patients, respectively. […] From the 28th day of the therapy the number of the patients experiencing the maximum effect has not been changed either on the 35th or the 42nd days of the therapy. Out of 20% of the patients experiencing a partial reduction of the depressive symptoms, 15% have been patients with the reduction from 25% to 50%, and 5%—patients with the reduction by less than 25%.

white outbred male mice = test: haloperidol catalepsy method; assay type: in vivo; conditions: haloperidol 0.5 mg/kg intraperitoneally alone
Experimental: As one of the indicators for antidepressant antagonism in relation to depriming effects of neuroleptics, neuroleptic-induced catalepsy is used. The maintenance of catalepsy in animals is assessed by their ability to maintain set or unusual poses for a definite time (Morpurgo C. Effects of antiparkinson drugs on phenothiazine induced catatonia reaction//Arch. Int Pharmacodyn., 1962, vol. 137 No 1-2, p. 84-94). Reduction or prevention of catalepsy is one of the factors showing antidepressant activity in studied substances.
The studies have been conducted with white outbred male mice having the weight from 18 to 24 grams. Haloperidol is introduced intraperitoneally in a single dose of 0.5 mg/kg. Phenotropyl has been introduced intraperitoneally in doses of 50, 100 and 200 mg/kg in 15 minutes after the introduction of haloperidol. The catalepsy intensity has been assessed by time (in seconds) of keeping the animals in an uncomfortable pose where their front legs have been put onto a bar having the height of 4 cm, in 60, 120 and 180 minutes after introducing the said medications. It is shown in Table 4 that phenotropyl clearly antagonizes haloperidol-induced catalepsy.

white outbred male rats [4] = test: reserpine depression method according to Bernardi; assay type: in vivo; conditions: reserpine 2.5 mg/kg intraperitoneally alone
Excerpt: The method of reserpine depression according to Bernardi (Bernardi D., Paglialunga S., Jori A. Peripheral and central components in the hyperthermic effect of desipramine in rezerpinized rats//J. Pharm. Pharmacol., 1968, vol. 20, p. 204-209) is one of the basic models for assessing antidepressants in studies of new pharmaceuticals. The studies have been conducted with white outbred male rats having the weight from 200 to 240 grams. Reserpine has been introduced intraperitoneally, as a single dose of 2.5 mg/kg 2 hours before the introduction of phenotropyl (intraperitoneally, single doses of 25, 50, 100 and 200 mg/kg) and 3 hours before starting the study. The animals from the control group have received intraperitoneally distilled water only in the same volumes as the animals from the experimental groups. The antidepressant activity of phenotropyl has been assessed by its effect on sedation (suppression of the orientation and motion activity), intensity of ptosis and diarrhea, which have been caused by reserpine in the rats.
The orientation and motion activity of the animals has been studied for three minutes in a special activity meter (Varimex). The intensity of ptosis and diarrhea has been assessed on the standard 4-point scale (Mashkovsky M. D., Andreeva N. I., Polezhaeva A. I. Pharmacology of Antidepressants. Moscow, Medicine Publishers, 1983, p. 194-199).

CN(C)CCC=C1c2ccccc2CCc2ccccc21 [Amitriptyline, 5-(3-dimethylaminopropylidene)-10,11-dihydrodibenzocycloheptine hydrochloride, reference compound]
effect on immobility time (white outbred male rats [1]; 10 mg/kg intragastrically): reliably reduced the immobility time | Time of immobility (white outbred male rats [1]; single dose 10 mg/kg intragastrically 40 minutes before, 10 minutes observation): 166.1 ± 46.5 s | effect on number of wheel revolutions (white outbred male rats [2]; 10 mg/kg intragastrically): reliably increasing the number of wheel revolutions | Number of wheel revolutions for 10 minutes (white outbred male rats [2]; single dose 10 mg/kg intragastrically 40 minutes before): 115.1 ± 24.6 | patients (%) with reduction of total Hamilton score 25-49 ([3]; 7th therapy day): 20% | patients (%) with reduction of total Hamilton score <25 ([3]; 7th therapy day): 80% | patients (%) with reduction of total Hamilton score ≧50 ([3]; 7th therapy day): 0% | patients (n) with reduction of total Hamilton score 25-49 ([3]; 7th therapy day): 4 | patients (n) with reduction of total Hamilton score <25 ([3]; 7th therapy day): 16 | patients (n) with reduction of total Hamilton score ≧50 ([3]; 7th therapy day): 0 | patients (%) with reduction of total Hamilton score 25-49 ([3]; 14th therapy day): 30% | patients (%) with reduction of total Hamilton score <25 ([3]; 14th therapy day): 50% | patients (%) with reduction of total Hamilton score ≧50 ([3]; 14th therapy day): 20% | patients (n) with reduction of total Hamilton score 25-49 ([3]; 14th therapy day): 6 | patients (n) with reduction of total Hamilton score <25 ([3]; 14th therapy day): 10 | patients (n) with reduction of total Hamilton score ≧50 ([3]; 14th therapy day): 4 | patients (%) with reduction of total Hamilton score 25-49 ([3]; 21st therapy day): 30% | patients (%) with reduction of total Hamilton score <25 ([3]; 21st therapy day): 30% | patients (%) with reduction of total Hamilton score ≧50 ([3]; 21st therapy day): 40% | patients (n) with reduction of total Hamilton score 25-49 ([3]; 21st therapy day): 6 | patients (n) with reduction of total Hamilton score <25 ([3]; 21st therapy day): 6 | patients (n) with reduction of total Hamilton score ≧50 ([3]; 21st therapy day): 8 | patients (%) with reduction of total Hamilton score 25-49 ([3]; 28th therapy day): 10% | patients (%) with reduction of total Hamilton score <25 ([3]; 28th therapy day): 20% | patients (%) with reduction of total Hamilton score ≧50 ([3]; 28th therapy day): 70% | patients (n) with reduction of total Hamilton score 25-49 ([3]; 28th therapy day): 2 | patients (n) with reduction of total Hamilton score <25 ([3]; 28th therapy day): 4 | patients (n) with reduction of total Hamilton score ≧50 ([3]; 28th therapy day): 14 | patients (%) with reduction of total Hamilton score 25-49 ([3]; 35th therapy day): 5% | patients (%) with reduction of total Hamilton score <25 ([3]; 35th therapy day): 10% | patients (%) with reduction of total Hamilton score ≧50 ([3]; 35th therapy day): 85% | patients (n) with reduction of total Hamilton score 25-49 ([3]; 35th therapy day): 1 | patients (n) with reduction of total Hamilton score <25 ([3]; 35th therapy day): 2 | patients (n) with reduction of total Hamilton score ≧50 ([3]; 35th therapy day): 17 | patients (%) with reduction of total Hamilton score 25-49 ([3]; 42nd therapy day): 5% | patients (%) with reduction of total Hamilton score <25 ([3]; 42nd therapy day): 10% | patients (%) with reduction of total Hamilton score ≧50 ([3]; 42nd therapy day): 85% | patients (n) with reduction of total Hamilton score 25-49 ([3]; 42nd therapy day): 1 | patients (n) with reduction of total Hamilton score <25 ([3]; 42nd therapy day): 2 | patients (n) with reduction of total Hamilton score ≧50 ([3]; 42nd therapy day): 17

O=C(CCCN1CCC(O)(c2ccc(Cl)cc2)CC1)c1ccc(F)cc1 [Haloperidol, reference compound]
Catalepsy (white outbred male mice; 60 minutes): 1.3 ± 0.8 s | Catalepsy (white outbred male mice; 120 minutes): 27.5 ± 8.5 s | Catalepsy (white outbred male mice; 180 minutes): 63.4 ± 2.8 s

COC(=O)[C@H]1[C@H]2C[C@@H]3c4[nH]c5cc(OC)ccc5c4CCN3C[C@H]2C[C@@H](OC(=O)c2cc(OC)c(OC)c(OC)c2)[C@@H]1OC [Reserpine, reference compound]
Diarrhea (white outbred male rats [4]; 4-point scale): 2.4 ± 0.1 points | Ptosis (white outbred male rats [4]; 3 hours before study, 4-point scale): 3.6 ± 0.2 points | Number of pulses in activity meter (white outbred male rats [4]; three minutes, Varimex): 11.8 ± 2.2

— US20060287383A1, “Substance exhibiting antidepressant property” (priority 2003, published 2006)
